Tests used:
[1] = system: HCV genotype 1b (HCV-1b) replicon cells; assay: HCV genotype 1b replicon luciferase assay (EC50); assay type: cell-based, hepatitis C virus genotype 1b (Con1 clone); settings: 3 days, luciferase (Bright-Glo)
Method: (§1) The EC50 and CC50 values of anti-HCV compounds were determined by HCV genotype 1a (HCV-1a) and 1B (HCV-1b) stable transfer replication (replicon) cells. The source of genotype 1a replicon is H77 clones containing K1691R, K2040R and S2204I adaptive mutations. The source of genotype 1b replicon is Con1 clones containing E1202G, T1280I and K1846T adaptive mutations.
(§2) HCV 1a (HCV-1a) and 1b (HCV-1b) gene subtype replicon system contains the related HCV gene subtype non structural protein gene, G418 resistance gene NEO and luciferase gene, which results in that HCV related protein and luciferase can be stably expressed in cells. By detecting the level of expression of luciferase gene, the level of HCV replication can be determined. Therefore, the system is used as a model for screening the activity of anti-HCV compound in vitro.
(§3) HCV Replicon Cell Lines: HCV-1a and HCV-1b Cells
(§4) The compound powder was dissolved in 100% DMSO. Then the compound was diluted 5 times with 6 points, and added into the cell plate with Echo liquid handler. Ensure the final concentration of DMSO was 0.5%. Each compound was tested in double holes. Maximum initial concentration was 100, 10 or 1 nM, 5 times dilution, 6 points.
(§5) b) Cell Culture (HCV-1a or HCV-1b Replicon Cell):
(§6) 1) absorbing the culture supernatant of the cell culture and washing the cells with 10 mL PBS.
(§7) 2) adding preheated pancreatin to the washed cell culture flasks, rotating culture bottle to make the bottom of the culture bottle uniformly covered by pancreatin, then placed into 37° C., 5% CO2 incubator to digest.
(§8) 3) suspending cells in each T150 culture flask with 10-15 mL culture medium, absorbing 0.1 mL liquid and diluting 2 times by trypan blue solution as counted.
(§9) 4) diluting cells to 8×10^4/mL with the culture medium, adding the diluted cells into the compound-containing 96-well plate (Greiner, Cat.#655090) (100 μL/well, 8000 cells/well) with automatic liquid separator (Thermo Scientific). Then place into a 37° C., 5% CO2 incubator for 3 days. Cell control well: no compound, only containing 0.5% DMSO.
(§10) 6) then adding luciferase luminescence substrate Bright-Glo, after incubation for 5 minutes, detecting the luciferase activity by chemical luminescence detection system Envison (wavelength>700 nm); analyzing the anti-HCV inhibitory activity of the compounds according to luciferase data, which was used to calculate EC50 values.
(§11) The EC50 or CC50 values were obtained by nonlinear fitting analysis on inhibition percentage (inh %) data with GraphPad Prism software.

[2] = system: HCV genotype 1a (HCV-1a) replicon cells; assay: HCV genotype 1a replicon luciferase assay (EC50); assay type: cell-based, hepatitis C virus genotype 1a (H77 clone); settings: 3 days, luciferase (Bright-Glo)
Method: as §1, §2, §3, §4, §5, §6, §7, §8, §9, §10, §11

[3] = Cell Titer-fluor cell activity assay in HCV-1b replicon cells (CC50); assay type: cell-based
Method: as §1, §3, §4, §5, §6, §7, §8, §9
5) adding chemiluminescent substrate Cell Titer-fluor to the cell well, after incubation for 30 minutes, detecting the signal by chemiluminescence detection system Envison (Ex at 405 nm and read at 515 nm). The effect of the compounds on the activity of HCV replicon cells was analyzed according to the luminescence data, which was used to calculate the CC50 values.
as §11

| SMILES | EC50 ([1]; Hepatitis C virus, 72 h) | EC50 ([2]; Hepatitis C virus, 72 h) | CC50 at 3 days [3] | EC50 [1] | EC50 [2] |
| --- | --- | --- | --- | --- | --- |
| COC(=O)N[C@H](C(=O)N1CCC[C@H]1c1ncc(-c2ccc(-c3ccc(-c4cc(Cl)c([C@@H]5CCCN5C(=O)[C@@H](NC(=O)OC)[C@@H](C)OC)[nH]4)cc3)cc2)[nH]1)[C@@H](C)OC [AG_094] | 0.001 to 0.1 nM | 0.101 to 1 nM | > 1 nM | – | – |
| COC(=O)N[C@H](C(=O)N1CCC[C@H]1c1ncc(-c2ccc(-c3ccc(-c4cnc(C5C6CCC(C6)[C@@H]5C(=O)N(NC(=O)OC)C(C)C)[nH]4)cc3)cc2)[nH]1)C(C)C (stereo partly shown) [AA_121_A] | 1 to 10 nM | 10 to 100 nM | > 10 nM | – | – |
| COC(=O)N[C@H](C(=O)N1CCC[C@H]1c1ncc(-c2ccc(-c3ccc(-c4cnc([C@@H]5C6CCC(C6)[C@H]5C(=O)NCc5cccnc5C(C)C)[nH]4)cc3)cc2)[nH]1)C(C)C (stereo partly shown) [AA_215_B] | 0.001 to 0.1 nM | 10 to 100 nM | > 1 nM | – | – |
| COC(=O)N[C@H](C(=O)N1CCC[C@H]1c1ncc(-c2ccc(-c3ccc(-c4cnc([C@@H]5C6CCC(C6)[C@H]5C(=O)NCc5cccnc5C(F)(F)F)[nH]4)cc3)cc2)[nH]1)C(C)C (stereo partly shown) [AA_216_B] | 0.001 to 0.1 nM | 10 to 100 nM | > 1 nM | – | – |
| COC(=O)N[C@H](C(=O)N1CCC[C@H]1c1ncc(-c2ccc(-c3ccc(-c4cnc(C5C6CCC(C6)[C@@H]5C(=O)NCc5cccnc5)[nH]4)cc3)cc2)[nH]1)[C@@H](C)OC (stereo partly shown) [AA_179_B] | 0.001 to 0.1 nM | 1 to 10 nM | > 1 nM | – | – |
| COC(=O)NC(C(=O)N1CCC[C@H]1c1ncc(-c2ccc(-c3ccc(-c4cnc(C5C6CCC(C6)[C@@H]5C(=O)NCc5cccnc5)[nH]4)cc3)cc2)[nH]1)C1CCOCC1 (stereo partly shown) [AA_191] | 0.101 to 1 nM | 1 to 10 nM | > 1 nM | – | – |
| COC(=O)NC(C(=O)N1CCCC1c1[nH]c(-c2ccc(-c3ccc(-c4cnc([C@@H]5CCCN5C(=O)[C@@H](NC(=O)OC)C(C)C)[nH]4)cc3)cc2)c2c1CCC2)C1CCOC1 (single isomer, unassigned) [AG_025_A] | – | 10 to 100 nM | > 10 nM | 0.001 to 0.1 nM | – |
| COC(=O)N[C@H](C(=O)N1CCC[C@H]1c1ncc(-c2ccc(-c3ccc(-c4cnc([C@H]5C6CCC(C6)[C@@H]5C(=O)N(C)c5ccccn5)[nH]4)cc3)cc2)[nH]1)C(C)C (stereo partly shown) [AA_195_A] | 0.001 to 0.1 nM | 0.101 to 1 nM | > 1 nM | – | – |
| COC(=O)N[C@H](C(=O)N1CCC[C@H]1c1ncc(-c2ccc(-c3ccc(-c4cnc([C@@H]5C6CCC(C6)[C@H]5C(=O)NCCc5ccncc5)[nH]4)cc3)cc2)[nH]1)C(C)C (stereo partly shown) [AA_209_B] | 0.101 to 1 nM | 10 to 100 nM | > 1 nM | – | – |
| COC(=O)N[C@H](C(=O)N1CCC[C@H]1c1ncc(-c2ccc(-c3ccc(-c4cnc([C@@H]5C6CCC(C6)[C@H]5C(=O)NCCO)[nH]4)cc3)cc2)[nH]1)C(C)C (stereo partly shown) [AA_193] | 0.001 to 0.1 nM | 1 to 10 nM | > 1 nM | – | – |
| COC(=O)N[C@H](C(=O)N1CCC[C@H]1c1ncc(-c2ccc(-c3ccc(-c4[nH]c([C@@H]5CCCN5C(=O)[C@@H](NC(=O)OC)C(C)C)c5c4COC5)cc3)cc2)[nH]1)C(C)C [AG_060_B] | 0.001 to 0.1 nM | 0.001 to 0.1 nM | > 10 nM | – | – |
| COC(=O)N[C@H](C(=O)N1CCC[C@H]1c1ncc(-c2ccc(-c3ccc(-c4[nH]c([C@@H]5CCCN5C(=O)[C@@H](NC(=O)OC)[C@@H](C)OC)c5c4COC5)cc3)cc2)[nH]1)[C@@H](C)O [AG_105] | 0.001 to 0.1 nM | 0.101 to 1 nM | > 1 nM | – | – |
| COC(=O)N[C@H](C(=O)N1CCC[C@H]1c1ncc(-c2ccc(-c3ccc(-c4cnc(C5C6CCC(C6)[C@H]5C(=O)NCc5cccnc5O)[nH]4)cc3)cc2)[nH]1)[C@@H](C)OC (stereo partly shown) [AA_263_C] | 0.101 to 1 nM | 10 to 100 nM | > 1 nM | – | – |
| COC(=O)N[C@H](C(=O)N1CCC[C@H]1c1ncc(-c2ccc(-c3ccc(-c4cnc([C@H]5C6CCC(C6)[C@@H]5C(=O)NC(C)c5cccnc5)[nH]4)cc3)cc2)[nH]1)C(C)C (single isomer, unassigned) [AA_204_A] | 0.001 to 0.1 nM | – | > 1 nM | – | 0.101 to 1 nM |
| COC(=O)N[C@H](C(=O)N1CCC[C@H]1c1ncc(-c2ccc(-c3ccc(-c4cnc(C5C6CCC(C6)[C@@H]5C(=O)N(NC(=O)OC)C5CCOCC5)[nH]4)cc3)cc2)[nH]1)C(C)C (stereo partly shown) [AA_158] | 0.001 to 0.1 nM | 1 to 10 nM | > 1 nM | – | – |
| COC(=O)N[C@H](C(=O)N1CCC[C@H]1c1ncc(-c2ccc(-c3ccc(-c4cnc([C@@H]5C6CCC(C6)C5C(=O)NCc5cccnc5)[nH]4)cc3)nc2)[nH]1)[C@@H](C)OC (stereo partly shown) [AA_242_B] | 0.101 to 1 nM | 10 to 100 nM | > 1 nM | – | – |
| COC(=O)N[C@H](C(=O)N1CCC[C@H]1c1ncc(-c2ccc(-c3ccc(-c4cnc([C@@H]5C6CCC(C6)[C@H]5C(=O)NCc5ccccc5)[nH]4)cc3)cc2)[nH]1)C(C)C (stereo partly shown) [AA_207_B] | 0.001 to 0.1 nM | 10 to 100 nM | > 1 nM | – | – |
| COC(=O)N[C@H](C(=O)N1CCC[C@H]1c1ncc(-c2ccc(-c3ccc(-c4cnc([C@H]5C6CCC(C6)[C@@H]5C(=O)NCc5cncnc5)[nH]4)cc3)cc2)[nH]1)C(C)C (stereo partly shown) [AA_201_A] | 0.001 to 0.1 nM | 0.101 to 1 nM | > 1 nM | – | – |
| CCOC(=O)CNC(=O)[C@@H](NC(=O)[C@@H]1[C@@H]2CC[C@@H](C2)[C@H]1c1ncc(-c2ccc(-c3ccc(-c4cnc([C@@H]5CCCN5C(=O)[C@@H](NC(=O)OC)C(C)C)[nH]4)cc3)cc2)[nH]1)C(C)C [AA_301_ENDOA2] | 0.101 to 1 nM | 10 to 100 nM | > 1 nM | – | – |
| COC(=O)NC(C(=O)C1CCCCC1c1ncc(-c2ccc(-c3ccc(-c4[nH]c([C@@H]5CCCN5C(=O)[C@@H](NC(=O)OC)C(C)C)c5c4CCC5)cc3)cc2)[nH]1)C(C)C (stereo partly shown) [AA_100] | 10 to 100 nM | – | > 10 nM | – | – |
| COC(=O)N[C@H](C(=O)N1CCC[C@H]1c1ncc(-c2ccc(-c3ccc(-c4cnc(C5CCC[C@H]5C(=O)NC(C)C)[nH]4)cc3)cc2)[nH]1)C(C)C (stereo partly shown) [AA_028] | 1 to 10 nM | – | > 100 nM | – | – |
| COC(=O)N[C@H](C(=O)N1CC2(C[C@H]1c1ncc(-c3ccc(-c4ccc5cc(-c6cnc(C7CCCC[C@H]7C(=O)N(NC(=O)OC)C(C)C)[nH]6)ccc5c4)cc3)[nH]1)OCCO2)C(C)C (stereo partly shown) [AA_073] | 1 to 10 nM | – | > 10 nM | – | – |
| COC(=O)N[C@H](C(=O)N1CCC[C@H]1c1ncc(-c2ccc(-c3ccc(-c4cnc(C5=C(C(=O)N(NC(=O)OC)C(C)C)CCC5)[nH]4)cc3)cc2)[nH]1)C(C)C [AA_007] | 1 to 10 nM | – | > 100 nM | – | – |
| COC(=O)N[C@H](C(=O)N1CCC[C@H]1c1ncc(-c2ccc(-c3ccc(-c4cnc(C5CCCC[C@H]5C(=O)N(NC(=O)OC)C(C)C)[nH]4)cn3)cc2)[nH]1)C(C)C (stereo partly shown) [AA_108] | 1 to 10 nM | – | > 10 nM | – | – |
| COC(=O)N[C@H](C(=O)N1CCC[C@H]1c1ncc(-c2ccc(-c3ccc4cc(-c5cnc(C6CCCC[C@H]6C(=O)N(NC(=O)OC)C(C)C)[nH]5)ccc4c3)cc2)[nH]1)C(C)C (stereo partly shown) [AA_071] | 1 to 10 nM | – | > 10 nM | – | – |
| COC(=O)NN(C(=O)[C@H]1CCCCC1c1ncc(-c2ccc(-c3ccc4cc(-c5cnc(C6CCCC[C@H]6C(=O)N(NC(=O)OC)C(C)C)[nH]5)ccc4c3)cc2)[nH]1)C(C)C (stereo partly shown) [AA_074] | 10 to 100 nM | – | > 10 nM | – | – |
| COC(=O)N[C@H](C(=O)N1CCC[C@H]1c1ncc(-c2ccc(-c3ccc(-c4cnc(C5=C(C(=O)N(NC(=O)OC)C(C)C)CCCC5)[nH]4)cc3)cc2)[nH]1)C(C)C [AA_014] | 1 to 10 nM | – | > 100 nM | – | – |
| COC(=O)N[C@H](C(=O)N1CCC[C@H]1c1[nH]c(-c2ccc(-c3ccc4cc(-c5cnc(C6CCCC[C@@H]6C(=O)N(NC(=O)OC)C(C)C)[nH]5)ccc4c3)cc2)c2c1CCC2)C(C)C (stereo partly shown) [AA_094] | 10 to 100 nM | – | > 10 nM | – | – |
| COC(=O)NN(C(=O)[C@@H]1CCCCC1c1ncc(-c2ccc3cc(-c4ccc(-c5cnc(C6CCCC[C@@H]6C(=O)N(CC(=O)NC6CC6)C(C)C)[nH]5)cc4)ccc3c2)[nH]1)C(C)C (stereo partly shown) [AA_075] | 10 to 100 nM | – | > 10 nM | – | – |
| COC(=O)N[C@H](C(=O)N1CCC[C@H]1c1ncc(-c2ccc(-c3ccc(-c4cnc(C5CCCC[C@@H]5C(=O)N(NC(=O)OC)C(C)C)[nH]4)c(F)c3)cc2)[nH]1)C(C)C (stereo partly shown) [AA_118] | 1 to 10 nM | – | > 10 nM | – | – |

Source: patent US10160771B2, “Hepatitis C virus inhibitors and uses thereof in preparation of drugs” (priority 2014, dated 2018)
